Experiment [1] concerns the target BaF3-LR_TM_CS cells (Homo sapiens, UniProt P00533, T790M/C797S/L858R, cells depend on it). Put plainly: Cell antiproliferation assay (CellTiter-Glo), BaF3-LR_TM_CS. The class given is cell-based. The following applies: 48 h treatment, read-out: BaF3-LR_TM_CS IC50. How it is done:
(§1) BaF3 cells are treated with compounds diluted in 0.2% DMSO, dilution is done according to the following protocol: (1) make 500× stock solution in DMSO from 5 mM by 5-fold dilution, total 8 doses were included; (2) make 10× solution in cell culture medium by transferring 2 μl 500× stock solution into 98 μl medium; (3) 10 μl of 10× solution is added to cells and incubate for 48 h.
(§2) After 48 h treatment, add 30 μl CellTiter-Glo reagent[CellTiter-Glo® 2.0, (Promega, Cat #G9242)] to each well; seal the plate and incubate 2 min at room temperature on a plate shaker; Allow the plate to incubate at room temperature for 10 minutes to stabilize the luminescent signal. Record luminescence on BMG PheraStar with luminescence protocol.
(§3) The IC50 value of a compound can be obtained by fitting the following equation
(§4) Wherein, X and Y are known values, and IC50, Hillslope, Top and Bottom are the parameters obtained by fitting with software. Y is the inhibition percentage (calculated from the equation), X is the concentration of the compound; IC50 is the concentration of the compound when the 50% inhibition is reached. The smaller the IC50 value is, the stronger the inhibitory ability of the compound is. Vice versa, the higher the IC50 value is, the weaker the ability the inhibitory ability of the compound is; Hillslope represents the slope of the fitted curve, generally around 1 *; Bottom represents the minimum value of the curve obtained by data fitting, which is generally 0%±20%; Top represents the maximum value of the curve obtained by data fitting, which is generally 100%±20%. The experimental data were fitted by calculating and analyzing with Dotmatics data analysis software.

Experiment [2] concerns the target T1, EGFR (aa668-1210, Invitrogen) (Homo sapiens, UniProt P00533).
T1 construct: EGFR (aa668-1210, Invitrogen); purchased Invitrogen
Put plainly: Biochemical EGFR inhibition assay (TR-FRET), wild-type EGFR. The following applies: ATP at Km, 15 min pre-incubation, 60 min reaction; read-out: WT (Km ATP) IC50. Here is the method:
(§5) Compounds were tested for inhibition of kinase activity against EGFR (aa668-1210, Invitrogen), EGFR(L858R_T790M_C797S) (aa695-end, Invitrogen) and EGFR(Dell9_T790M_C797S) (aa 669-1210, in house) in assays based on time-resolved fluorescence-resonance energy transfer (TR-FRET) methodology. Recombinant EGFR, EGFR(L858R_T790M_C797S) or EGFR(Dell9_T790M_C797S) was pre-incubated with the compounds at room temperature for 15 minutes in an assay buffer containing 50 mM HEPES pH7.5, 10 mM MgCl2, 2 mM DTT, 1 mM EGTA, 0.1% BSA, 0.01% Tween-20. The reactions were initiated by the addition of ATP (at the concentration of ATP Km) and substrate Biotin-Poly GT. After reaction at room temperature for 60 minutes, stop/detection solution was added. The stop/detection solution contained Eu^3+ cryptate-conjugated mouse monoclonal antibody (PT66) anti-phosphotyrosine and XL665-conjugated streptavidin in buffer containing 50 mM HEPES pH7.0, 800 mM KF, 20 mM EDTA, and 0.1% BSA. Plates were sealed and incubated at room temperature for 1 hour, and the TR-FRET signals (ratio of fluorescence emission at 665 nm over emission at 620 nm with excitation at 337 nm wavelength) were recorded on a PHERAstar FS plate reader (BMG Labtech). The residual enzyme activity in presence of increasing concentrations of compounds was calculated based on the ratio of fluorescence at 665 nm to that at 620 nm. The IC50 for each compound was derived from fitting the data to the four-parameter logistic equation by Dotmatics or Graphpad Prism software.
(§6) These biochemical EGFR enzyme form compound dose-response assays quantify the kinase activity via phosphorylation of a tagged poly-GT substrate. The results of the assay are provided as IC50 values.
A general note: In TR-FRET formats the signal depends on donor and acceptor labels being close together.

The target in experiment [3] is BaF3-WT cells (Homo sapiens, UniProt P00533). The experiment is described as follows: Cell antiproliferation assay (CellTiter-Glo), BaF3-WT. The format is cell-based. The note with it: 48 h treatment, read-out: BaF3-WT IC50. How it is done: as §1, §2, §3, §4
On the technique in general: Cellular ATP, detected with luciferase, serves as a proxy for viable cell number.

For experiment [4], the target named is BaF3-Del_TM_CS cells (Homo sapiens, UniProt P00533, T790M/C797S, cells depend on it, form not given). The experiment is described as follows: Cell antiproliferation assay (CellTiter-Glo), BaF3-Del_TM_CS. The class given is cell-based. The note with it: 48 h treatment, read-out: BaF3-Del_TM_CS IC50. Here is the method:
as §1, §2, §3, §4

Experiment [5] addresses EGFR(Dell9_T790M_C797S) (aa 669-1210, in house) (Homo sapiens, UniProt P00533, T790M/C797S, form not given). Put plainly: Biochemical EGFR inhibition assay (TR-FRET), Del19/T790M/C797S mutant. The note with it: ATP at Km, 15 min pre-incubation, 60 min reaction; read-out: Del_TM_CS (Km ATP) IC50. How it is done: as §5, §6
For experiment [6], the target named is T2, EGFR(L858R_T790M_C797S) (aa695-end, Invitrogen) (Homo sapiens, UniProt P00533, C797S/L858R/T790M).
T2 construct: purchased Invitrogen
T2 sequence (P00533 695-1210 T790M/C797S/L858R): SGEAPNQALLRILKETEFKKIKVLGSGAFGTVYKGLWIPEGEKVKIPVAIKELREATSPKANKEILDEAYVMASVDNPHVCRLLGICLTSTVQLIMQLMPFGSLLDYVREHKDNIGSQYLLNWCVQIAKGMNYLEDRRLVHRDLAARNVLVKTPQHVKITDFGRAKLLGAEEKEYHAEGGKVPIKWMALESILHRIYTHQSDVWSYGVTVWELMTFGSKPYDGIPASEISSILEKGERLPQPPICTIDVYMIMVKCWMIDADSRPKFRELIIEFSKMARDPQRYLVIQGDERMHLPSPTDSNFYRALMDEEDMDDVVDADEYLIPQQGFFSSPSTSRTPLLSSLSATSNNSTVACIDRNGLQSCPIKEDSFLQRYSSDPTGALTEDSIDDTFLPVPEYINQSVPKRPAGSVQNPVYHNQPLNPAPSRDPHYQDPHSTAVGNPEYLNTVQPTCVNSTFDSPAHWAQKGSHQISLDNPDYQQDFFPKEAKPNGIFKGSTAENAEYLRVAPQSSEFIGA
The experiment is described as follows: Biochemical EGFR inhibition assay (TR-FRET), L858R/T790M/C797S mutant. The note with it: ATP at Km, 15 min pre-incubation, 60 min reaction; read-out: LR_TM_CS (Km ATP) IC50. Here is the method: as §5, §6

In general, pIC50 refers to −log10 of the IC50, conventionally taken in molar units.

pIC50: −log10 of the molar value.

Chain of EGFR(Dell9_T790M_C797S) (aa 669-1210, in house) (P00533 with tags, fused parts or gaps DEL746-750/T790M/C797S, form open): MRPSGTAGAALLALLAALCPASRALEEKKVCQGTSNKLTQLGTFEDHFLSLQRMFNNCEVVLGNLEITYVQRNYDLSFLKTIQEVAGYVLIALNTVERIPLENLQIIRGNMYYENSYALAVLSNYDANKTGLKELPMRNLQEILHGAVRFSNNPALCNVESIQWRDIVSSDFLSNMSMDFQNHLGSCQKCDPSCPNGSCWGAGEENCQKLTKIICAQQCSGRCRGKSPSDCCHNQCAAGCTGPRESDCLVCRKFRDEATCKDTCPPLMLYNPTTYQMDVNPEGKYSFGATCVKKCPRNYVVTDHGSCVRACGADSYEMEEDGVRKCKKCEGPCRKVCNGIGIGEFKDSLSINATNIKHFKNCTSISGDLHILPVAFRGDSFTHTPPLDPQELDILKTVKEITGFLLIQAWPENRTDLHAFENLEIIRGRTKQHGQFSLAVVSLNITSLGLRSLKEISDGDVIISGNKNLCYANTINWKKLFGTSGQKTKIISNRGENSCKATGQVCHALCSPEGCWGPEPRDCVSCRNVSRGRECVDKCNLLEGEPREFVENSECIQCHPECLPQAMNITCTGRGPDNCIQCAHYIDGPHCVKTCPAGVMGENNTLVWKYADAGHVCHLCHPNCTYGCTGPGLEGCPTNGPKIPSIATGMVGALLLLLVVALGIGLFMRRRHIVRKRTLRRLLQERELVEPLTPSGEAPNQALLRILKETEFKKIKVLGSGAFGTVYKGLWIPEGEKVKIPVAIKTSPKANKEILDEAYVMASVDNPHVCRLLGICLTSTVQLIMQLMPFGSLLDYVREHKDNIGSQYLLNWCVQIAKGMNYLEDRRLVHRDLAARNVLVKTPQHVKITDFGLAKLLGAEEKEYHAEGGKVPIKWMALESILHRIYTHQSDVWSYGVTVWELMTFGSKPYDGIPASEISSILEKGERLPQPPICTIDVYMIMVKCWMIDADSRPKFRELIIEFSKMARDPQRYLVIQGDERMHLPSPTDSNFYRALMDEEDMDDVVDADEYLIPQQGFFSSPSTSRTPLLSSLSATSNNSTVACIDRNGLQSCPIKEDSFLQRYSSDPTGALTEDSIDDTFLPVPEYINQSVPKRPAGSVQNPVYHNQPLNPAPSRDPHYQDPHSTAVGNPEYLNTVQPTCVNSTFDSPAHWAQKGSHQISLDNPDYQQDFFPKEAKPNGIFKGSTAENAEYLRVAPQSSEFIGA
T1 sequence (P00533 668-1210): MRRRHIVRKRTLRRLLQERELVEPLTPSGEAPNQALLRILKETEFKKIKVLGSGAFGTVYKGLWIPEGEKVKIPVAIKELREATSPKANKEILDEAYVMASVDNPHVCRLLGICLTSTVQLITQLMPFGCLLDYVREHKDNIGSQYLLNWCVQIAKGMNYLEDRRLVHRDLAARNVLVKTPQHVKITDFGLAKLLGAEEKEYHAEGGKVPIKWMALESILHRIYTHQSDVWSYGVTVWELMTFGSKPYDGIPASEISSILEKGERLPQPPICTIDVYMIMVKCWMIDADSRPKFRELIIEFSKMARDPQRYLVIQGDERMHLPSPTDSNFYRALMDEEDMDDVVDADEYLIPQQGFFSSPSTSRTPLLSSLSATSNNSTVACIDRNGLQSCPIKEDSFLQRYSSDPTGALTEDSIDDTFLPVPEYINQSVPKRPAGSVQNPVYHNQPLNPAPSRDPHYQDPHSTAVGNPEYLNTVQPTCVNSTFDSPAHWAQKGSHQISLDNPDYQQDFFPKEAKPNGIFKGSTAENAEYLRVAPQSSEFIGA
Chain of BaF3-Del_TM_CS cells (P00533 with tags, fused parts or gaps DEL746-750/T790M/C797S, form open): as the sequence (P00533 with tags, fused parts or gaps DEL746-750/T790M/C797S, form open) above
Chain of BaF3-LR_TM_CS cells (P00533 whole entry T790M/C797S/L858R): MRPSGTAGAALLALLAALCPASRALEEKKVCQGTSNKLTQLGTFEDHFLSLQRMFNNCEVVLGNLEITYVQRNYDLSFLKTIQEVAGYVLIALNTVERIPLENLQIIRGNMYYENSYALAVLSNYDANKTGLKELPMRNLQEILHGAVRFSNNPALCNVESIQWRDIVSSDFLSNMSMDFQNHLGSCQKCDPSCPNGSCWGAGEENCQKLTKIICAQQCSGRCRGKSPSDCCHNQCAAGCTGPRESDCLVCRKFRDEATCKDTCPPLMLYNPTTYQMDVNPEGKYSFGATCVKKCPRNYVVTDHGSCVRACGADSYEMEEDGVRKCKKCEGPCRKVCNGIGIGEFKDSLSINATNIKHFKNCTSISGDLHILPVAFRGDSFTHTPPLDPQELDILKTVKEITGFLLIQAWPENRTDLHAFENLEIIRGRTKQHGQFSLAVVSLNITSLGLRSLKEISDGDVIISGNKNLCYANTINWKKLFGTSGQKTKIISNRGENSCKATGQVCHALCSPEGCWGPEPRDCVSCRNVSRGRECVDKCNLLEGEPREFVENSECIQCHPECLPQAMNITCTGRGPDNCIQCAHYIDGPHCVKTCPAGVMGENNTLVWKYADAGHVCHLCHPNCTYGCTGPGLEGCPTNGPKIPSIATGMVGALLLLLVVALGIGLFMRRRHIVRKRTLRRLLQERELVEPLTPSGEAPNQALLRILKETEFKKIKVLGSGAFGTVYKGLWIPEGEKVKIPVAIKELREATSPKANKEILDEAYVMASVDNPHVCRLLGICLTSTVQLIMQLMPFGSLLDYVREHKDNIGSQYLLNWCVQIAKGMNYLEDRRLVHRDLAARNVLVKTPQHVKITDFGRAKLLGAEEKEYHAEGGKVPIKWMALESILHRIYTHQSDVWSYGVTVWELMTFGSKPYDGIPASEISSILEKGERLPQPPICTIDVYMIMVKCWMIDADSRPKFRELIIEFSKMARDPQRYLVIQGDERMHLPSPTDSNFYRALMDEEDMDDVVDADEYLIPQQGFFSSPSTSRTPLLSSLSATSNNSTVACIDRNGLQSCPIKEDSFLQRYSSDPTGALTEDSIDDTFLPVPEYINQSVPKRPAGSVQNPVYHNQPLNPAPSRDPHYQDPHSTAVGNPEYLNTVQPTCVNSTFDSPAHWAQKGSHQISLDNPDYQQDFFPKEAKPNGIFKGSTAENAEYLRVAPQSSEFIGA

For the compound `COc1cc(N2CCC(N3CCN(C)CC3)CC2)ccc1Nc1ncc(Cl)c(Nc2ccc(F)c3c2N(S(C)(=O)=O)CC3)n1` [Example 1, 5-chloro-N^4-(4-fluoro-1-(methylsulfonyl)indolin-7-yl)-N^2-(2-methoxy-4-(4-(4-methylpiperazin-1-yl)piperidin-1-yl)phenyl)pyrimidine-2,4-diamine], the GI50 was found to be 152 nM in experiment [1], 635 nM in experiment [3] and 48.2 nM in experiment [4]. In addition, the pIC50 in experiment [2] is 9.26; in experiment [5], 9.89; in experiment [6] it was 10.00.
Turning to `CN1CCN(C2CCN(c3ccc(Nc4nc(Nc5cccc6c5N(S(C)(=O)=O)CC6)c5cc[nH]c5n4)cn3)CC2)CC1` [Example 184, N2-(6-(4-(4-methylpiperazin-1-yl)piperidin-1-yl)pyridin-3-yl)-N4-(1-(methylsulfonyl)indolin-7-yl)-7H-pyrrolo[2,3-d]pyrimidine-2,4-diamine], the pIC50 was 6.37 in experiment [2], 8.60 in experiment [5] and 8.77 in experiment [6].
Regarding `CCN1CCN(C2CCN(c3cc(F)c(Nc4ncc(Br)c(Nc5cccc6c5N(S(C)(=O)=O)CC6)n4)cc3F)CC2)CC1` [Example 185, 5-bromo-N2-(4-(4-(4-ethylpiperazin-1-yl)piperidin-1-yl)-2,5-difluorophenyl)-N4-(1-(methylsulfonyl)indolin-7-yl)pyrimidine-2,4-diamine], the pIC50 in experiment [2] was 8.82; in experiment [5], 9.52; in experiment [6] it was 9.52.
As for `COc1cc(N2CCC(N3CCN(C)C(=O)C3)CC2)ccc1Nc1nc(Nc2cccc3c2N(S(C)(=O)=O)CC3)c2cc[nH]c2n1` [Example 186, 4-(1-(3-methoxy-4-((4-((1-(methylsulfonyl)indolin-7-yl)amino)-7H-pyrrolo[2,3-d]pyrimidin-2-yl)amino)phenyl)piperidin-4-yl)-1-methylpiperazin-2-one], the results for the pIC50 in experiment [2], in experiment [5] and in experiment [6] were 6.86, 8.31 and 8.82, respectively.
As for `COc1cc(N2CCC(N3CCN(C)CC3)CC2)ccc1Nc1ncc(Cl)c(Nc2cccc3c2N(S(C)(=O)=O)CC32CC2)n1` [Example 187, 5-chloro-N2-(2-methoxy-4-(4-(4-methylpiperazin-1-yl)piperidin-1-yl)phenyl)-N4-(1′-(methylsulfonyl)spiro[cyclopropane-1,3′-indolin]-7′-yl)pyrimidine-2,4-diamine], the pIC50 in experiment [2] is 9.10; in experiment [5] it was 9.52; in experiment [6], 9.52.
In the case of `COc1cc(N2CCC(N3CCN(C)CC3)CC2)c(C)cc1Nc1ncc(Cl)c(Nc2cccc3c2N(S(C)(=O)=O)CC32CC2)n1` [Example 188, 5-chloro-N2-(2-methoxy-5-methyl-4-(4-(4-methylpiperazin-1-yl)piperidin-1-yl)phenyl)-N4-(1′-(methylsulfonyl)spiro[cyclopropane-1,3′-indolin]-7′-yl)pyrimidine-2,4-diamine], the pIC50 in experiment [2] was 9.30; in experiment [5] it was 9.15; in experiment [6], 9.52.
As for `COc1cc(N2CCC(N3CCN(C)C4(CC4)C3)CC2)ccc1Nc1nc(Nc2cccc3c2N(S(C)(=O)=O)CC3)c2cc[nH]c2n1` [Example 189, N2-(2-methoxy-4-(4-(4-methyl-4,7-diazaspiro[2.5]octan-7-yl)piperidin-1-yl)phenyl)-N4-(1-(methylsulfonyl)indolin-7-yl)-7H-pyrrolo[2,3-d]pyrimidine-2,4-diamine], the figures for the pIC50 in experiment [2], in experiment [5] and in experiment [6] were 7.45, 8.92 and 9.05, respectively.
As for `COc1cc(N2CCC(N3CCN(C)CC3)CC2)ncc1Nc1nc(Nc2cccc3c2N(S(C)(=O)=O)CC3)c2cc[nH]c2n1` [Example 190, N2-(4-methoxy-6-(4-(4-methylpiperazin-1-yl)piperidin-1-yl)pyridin-3-yl)-N4-(1-(methylsulfonyl)indolin-7-yl)-7H-pyrrolo[2,3-d]pyrimidine-2,4-diamine], the pIC50 in experiment [2] is 6.05; in experiment [5] it was 8.25; in experiment [6] it was 8.42.
For `COc1cc(N2CCC(N3CCN(C)CC3=O)CC2)ccc1Nc1nc(Nc2cccc3c2N(S(C)(=O)=O)CC3)c2cc[nH]c2n1` [Example 191, 1-(1-(3-methoxy-4-((4-((1-(methylsulfonyl)indolin-7-yl)amino)-7H-pyrrolo[2,3-d]pyrimidin-2-yl)amino)phenyl)piperidin-4-yl)-4-methylpiperazin-2-one], in that order: 7.50, 8.72 and 9.22.
As for `COc1cc(N2CCC(N3CCN(C)C4(CC4)C3)CC2)ccc1Nc1ncc(Br)c(Nc2cccc3c2N(S(C)(=O)=O)CC3)n1` [Example 192, 5-bromo-N2-(2-methoxy-4-(4-(4-methyl-4,7-diazaspiro[2.5]octan-7-yl)piperidin-1-yl)phenyl)-N4-(1-(methylsulfonyl)indolin-7-yl)pyrimidine-2,4-diamine], the values for the pIC50 in experiment [2], in experiment [5] and in experiment [6] were 9.15, 9.70 and 10.00, respectively.
Take `CN1CCN(C2CCN(c3ccc(Nc4ncc(Br)c(Nc5cccc6c5N(S(C)(=O)=O)CC6)n4)c4c3OCCO4)CC2)CC1` [Example 193, 5-bromo-N2-(8-(4-(4-methylpiperazin-1-yl)piperidin-1-yl)-2,3-dihydrobenzo[b][1,4]dioxin-5-yl)-N4-(1-(methylsulfonyl)indolin-7-yl)pyrimidine-2,4-diamine]: the figures for the pIC50 in experiment [2], in experiment [5] and in experiment [6] were 8.15, 9.70 and 9.05, respectively.
`CN1CCN(C2CCN(c3ccc(Nc4nc(Nc5cccc6c5N(S(C)(=O)=O)CC6)c5cc[nH]c5n4)cc3)CC2)CC1` [Example 194, N2-(4-(4-(4-methylpiperazin-1-yl)piperidin-1-yl)phenyl)-N4-(1-(methylsulfonyl)indolin-7-yl)-7H-pyrrolo[2,3-d]pyrimidine-2,4-diamine]: the pIC50 was 7.78 in experiment [2], 9.70 in experiment [5] and 10.00 in experiment [6].
In the case of `C#Cc1cnc(Nc2ccc(N3CCC(N4CCN(C)CC4)CC3)cc2OC)nc1Nc1cccc2c1N(S(C)(=O)=O)CC2` [Example 196, 5-ethynyl-N2-(2-methoxy-4-(4-(4-methylpiperazin-1-yl)piperidin-1-yl)phenyl)-N4-(1-(methylsulfonyl)indolin-7-yl)pyrimidine-2,4-diamine], the pIC50 was 8.03 in experiment [2], 8.82 in experiment [5] and 8.89 in experiment [6].
On to `COc1cc(N2CCC(N3CCN(C)CC3)CC2)c(C)cc1Nc1nc(N)c(Br)c(Nc2cccc3c2N(S(C)(=O)=O)CC3)n1` [Example 197, 5-bromo-N2-(2-methoxy-5-methyl-4-(4-(4-methylpiperazin-1-yl)piperidin-1-yl)phenyl)-N4-(1-(methylsulfonyl)indolin-7-yl)pyrimidine-24,6-triamine], for which the pIC50 in experiment [2] is 8.92; in experiment [5] it was 8.54; in experiment [6] it was 8.92.
